This note sets out measurements from patent US20020147136A1, “Compounds for targeting endothelial cells, compositions containing the same and methods for their use” (priority 2000, published 2002).

Residues, ends and D or L forms follow the SMILES beside them. No end group written: not given here.

Assay [1] relates to HAEC. The assay is described as follows: Inhibition of TKPPR-bubble binding to HAEC in static culture by competing agents. The format is cell-based, human. As to the method:
Vials of the compositions of example 5 and of example 6 may be reconstituted with 5 mL of sterile saline, injected using a 20-guage 1.5 inch needle. Bubbles may be then formed within the vials by shaking by hand vigorously for 30 seconds. 1 to 5 mL of the bubble formulation may be removed from each vial and diluted with 3 volumes of D-PBS (without calcium or magnesium) within 1 hour of use.
Chamber slides containing confluent HAEC may be drained of culture medium, which was immediately replaced with one of the final bubble solutions prepared above. The wells may be slightly overfilled such that the liquid meniscus protrudes slightly above the plastic well-forming scaffold of the slide. Bubble solutions may be only added to alternate wells to minimize liquid cross-talk. The wells may be sealed with a piece of Parafilm and the slide incubated 20 minutes, inverted (according to Klibanov A. L., Advanced drug Delivery Reviews, 37, 1999, 139-157) to allow the bubbles to rise and make contact with the cells, after which the solutions may be poured off. Weakly associated bubbles may be removed by washing each well twice with 0.5 mL of D-PBS, swirling gently each time before pouring off. Additional D-PBS (0.5 mL) may be added to wells after the washes to keep the cells submerged until microscopic evaluation.
Composition I of Example 5 was repeated exactly as described except that 0.5 mg DPPE-GTKPPR was added (instead of 2.5 mg) yielding compositions with 1% DPPE-GTKPPR. Vials of this composition as well as that of composition I ofExample 5 (5% DPPE-GTKPPR) were reconstituted with 5 mL of sterile saline, injected using a 20-guage 1.5 inch needle. Bubbles were then formed within the vials by shaking by hand vigorously for 30 seconds. 1 to 5 mL of the bubble formulation was removed from each vial and diluted with 3 volumes of D-PBS (without calcium or magnesium) within 1 hour of use.
Chamber slides containing confluent HAEC were drained of culture medium, which was immediately replaced with one of the final bubble solutions prepared above. The wells were slightly overfilled such that the liquid meniscus protruded slightly above the plastic well-forming scaffold of the slide. Bubble solutions were only added to alternate wells to minimize liquid cross-talk. The wells were sealed with a piece of Parafilm and the slide was incubated 20 minutes, inverted to allow the bubbles to rise and make contact with the cells, after which the solutions were poured off. Weakly associated bubbles were removed by washing each well twice with 0.5 mL of D-PBS, swirling gently each time pouring off. Additional D-PBS (0.5 mL) was added to wells after the washes to keep the cells submerged until microscopic evaluation.
Assays were performed as described for Example 7 using microbubble compositions containing 2% BRU-114 (Composition I of Example 5) as a % of total phospholipid in the composition.
Compositions were reconstituted and assays were performed as described in Example 7 using microbubble compositions containing 1% BRU-114 (Composition I of Example 5) as a % of total phospholipid in the composition.
Assays were performed as described for Example 7 using microbubble compositions containing 2% BRU-114 (as a % of total phospholipid in the composition).

Assay [2] deals with NP-1/Fc. The assay is described as follows: Inhibition of 125I-VEGF165 binding to NP-1/Fc. As to the method:
The ability of various compositions comprising TKPPR monomers or multimers to inhibit ^125I-VEGF binding to NP-1 was evaluated using NP-1/Fc. Competitive binding assays with microtiter plates coated with NP-1/Fc (R&D sytems) were performed using ^125I-VEGF165 as radioligand (Amersham Pharmacia Biotech Cat. No. IM274, Specific Activity: 1000-2500 Ci/mmol). […] Plates (Nunc MaxiSorp white opaque Microtiter plate [C-bottom, 437796]) were coated by incubating the wells with 75 µl of a solution containing 3 μlg/mL NP-1/Fc in D-PBS/0.1% NaAzide overnight at 4° C. after covering with sealing tape (Dynex, VWR Cat. No. 62402-931). […] All points were derived from triplicate wells, and for each set of replicates in NP-1/Fc-coated wells, a companion set in the absence of the receptor was included. For competitive binding, a series of unlabelled competitor concentrations were prepared in a 250 pM solution of ^1251-VEGF165 in assay buffer Solutions were added to 1.2 ml polypropylene tubes conforming to the microtiter format (Costar Cat. No. 29442-602), and transferred from these tubes to microtiter wells, without further dilution, using a multichannel pipettor. After addition of the appropriate solutions, microtiter plates were incubated at 4° C. for 2 hours. […] The plates were blotted dry and 25 μl deionized water and 100 μl scintillation fluid (Optiphase SuperMix, Wallac) were added to each well. Plates were agitated using a Plate Shaker (Hyperion, Cat. No. 4030-100F) for 3-5 minutes and were then counted using a Microplate Scintillation Counter (Wallac Microbeta Trilux) A set of serially diluted 125I-VEGF165 standard wells ranging from 200 to 0.04 pM were included with each experiment to aid in quantification of the amount of radiolabel bound.

For assay [3], the system named is Human aortic endothelial cells (HAEC). Description: TKPPR-conjugated fluorescent bead binding to HAEC, static. The format is cell-based. As to the method:
Human aortic endothelial cells (HAEC) from Biowhittaker were grown as monolayers in EGM-MV medium from Biowhittaker according to the supplier's instructions.
Briefly, a frozen cryovial of cells (500,000 cells in about 1 mL) was thawed for 2-3 minutes in a 37° C. water bath and cells were seeded into a T-75 flask coated with collagen I (commercially available) containing 15 mL EGM-MV of medium pre-equilibrated with 5% CO2 atmosphere. Cells were incubated in a standard tissue culture incubator at 37° C. HAEC were subcultured for up to 3 additional passages, using the following protocol:
For binding studies and characterization, pelleted cells were diluted to a concentration of 16,560 cells per mL, and 0.5 mL was seeded into each well of an 8-well chamber slide (Collagen I-coated, Becton Dickinson) to generate a seeding density of 12,000 cells/cm^2. Cells seeded into chamber slides were used for assays after 7 to 10 days, and were not further propagated.
TKPPR (see preparation described in the Example 1) was attached to red fluorescent carboxylate-modified FluoSpheres™ (Molecular Probes), which are 2.0 μm microspheres provided at 3.9×10^9 particles/mL of distilled water. 1.0 mg TKPPR was combined with 0.5 mLof 50 mM MES buffer (2-[N-Morpholino]ethanesulfonic acid, (commercially available), pH 6.0 and 0.2 mL FluoSpheres (7.8×10^8 spheres) in a 1.5 mL Eppendorf snap top, polypropylene centrifuge tube and rotated for 30 min at room temperature (RT). Then 2.8 mg EDAC (1-ethyl-3-(3-dimethylaminopropyl)carbodiimide hydrochloride, (commercially available) in 0.025 mL MES was added and the tube was rotated for 2 h at RT. Following the addition of 0.005 mL 1 N NaOH and 5.7 mg glycine in 0.025 mL MES, the tube was rotated for 30 min more at RT. The beads were then washed by employing three cycles of centrifugation at 14,000 rpm (20,800× g) in an Eppendorf 5417R centrifuge for 15 min, discarding the resulting supernatant, and resuspending in D-PBS. Storage was at 4° C. in 0.4 mL DPBS containing 0.05% NaN3 (final bead concentration was about 1.95×10^9/mL).
Final bead concentration was 1.95×10^7/mL. […]
Bead binding and localization was assessed at 200× magnification using the same microscopy equipment as described above. […] Finally, the processed images were inverted into black on a white background using Scion Image software (version beta 3b) and the integrated density was measured with the whole field selected.
The incubation time was decreased to 15 min on an orbital shaker, and the washes (3) were carried out using D-PBS containing 0.1% Tween 20 (Sigma). […] TKPPR-bead binding was quantitated in three fields, the other bead types were quantitated in one field only. Bound beads were quantitated by manual counting.

The test system of assay [4] is Neuropilin-1/Fc. Description: Fluorescence polarization binding to NP-1/Fc. As to conditions: Oregon Green-labeled ligand. The procedure:
The ability of various compositions comprising TKPPR monomers or multimers to bind to NP-1/Fc and KDR-Fc was evaluated using FP. The binding studies of various Oregon Green (OG)-labeled compounds comprising TKPPR monomers or multimers and related compounds with Neuropilin-1/Fc, and KDR-Fc (both from R&D Systems), were carried out at 37° C. in D-PBS buffer (pH 7.4). FP values (mP) for each substrate was measured by titrating the ligand (5-20 nM) with receptor protein using a Jolley Research and Consulting FPM-1 fluorescence Polarization analyzer. In each of these experiments the observed polarization values were plotted against receptor concentration. The mP values for 100% binding of tracer labeled ligand to receptor protein was calculated using the software provided by the vendor.

The subject of assay [5] is HAEC. Description: TKPPR-bead binding to endothelial cells under flow. It counts as cell-based, human. As to conditions: flow 1.91 mL/min, 37° C. The procedure: Circular 40 mm diameter glass coverslips (Bioptechs, Cat No. 40-1313-0319) were first derivative by dipping in 3-aminopropyltriethoxysilane (Pierce, Cat No. 80370ZZ), 20% in acetone (HPLC grade, Sigma Aldrich Cat No. 27,072-5), rinsed in acetone, and air-dried. After autoclaving, the derivatized coverslips were placed into 60 mm round, sterile culture dishes, one coverslip per dish. Five mL of a Collagen I solution (Becton Dickinson, Cat No. 40236), 41.6 μg/mL in 20 mM acetic acid (adjusted to pH 6.7 with NaOH), was added to each coverslip-containing dish. After 15 min, 0.25 mL of 11.5 mg/mL bis(sulfosuccinimidyl) suberate (Pierce, Cat No. 21580ZZ) was added to each dish and mixed in by swirling. After a 105-minute incubation, the dishes were drained and 5 mL of sterile TBS (20 mM Tris-HCl, pH 7.5, 140 mM NaCl) was added to each dish. […]
Coverslips containing confluent HAEC were mounted into a Bioptechs FCS2 parallel plate flow cell mounted on an Olympus IMT-2 inverted microscope. […] Wall shear stress T, in dynes/cm^2, was calculated using the equation (Lawrence et al., Blood 75:227-237, 1990): [formula]
Bead binding of equal numbers of red fluorescent beads conjugated with TKPPR and green fluorescent beads conjugated with glycine was monitored after increasing lengths of perfusion and variable lengths of subsequent washing with the same solution lacking microspheres.

Regarding `C[C@@H](O)[C@H](N)C(=O)N[C@@H](CCCCN)C(=O)N1CCC[C@H]1C(=O)N[C@@H](CCCNC(=N)N)C(=O)O` [TKPR, L-threonyl-L-lysyl-L-prolyl-L-Arginine, reference compound] (H-TKPR-OH), the “potency at inhibiting BRU-114 microbubble binding relative to TKPPR (BRU-95)” value in assay [1] (1% BRU-114 bubbles) is “less potent than TKPPR”. Also, in assay [1] (Example 7, compared with free TKPPR), the “inhibition of TKPPR-bubble binding to HAEC” value is reported as “less effectively than free TKPPR”. Also, the “Bubbles Bound (average of duplicate)” value came out at 1152 in assay [1] (competitor 5 microM, 1% BRU-114 bubbles); 976 in assay [1] (competitor 10 microM, 1% BRU-114 bubbles); 1171 in assay [1] (competitor 25 microM, 1% BRU-114 bubbles); 904 in assay [1] (competitor 50 microM, 1% BRU-114 bubbles); 556 in assay [1] (competitor 100 microM, 1% BRU-114 bubbles). The “fold less potent a binding inhibitor than TKPPR” value in assay [2] lay within 5 to 6 fold. For the same molecule, the IC50 in assay [2] (250 pM 125I-VEGF165, 4° C., 2 hours) amounted to 280 µM.
Take GRGDSP: in assay [3] (Experiment 1, 1.95×10^7 beads/mL, 30 min, HAEC monolayer), the “Integrated density of bound beads” value stood at 28.59 arbitrary units. Further, the “Number of bound beads” value in assay [3] (Experiment 2, 4.9×10^6 beads/mL, 15 min, manual counting, TKPPR average of three fields, others one field) is 2.
For the molecule “BRU-317: TKPPR dimer labeled with Oregon Green (also: dimer, labeled with Oregon Green)”, in assay [4], the “binding to NP-1/Fc by FP” value is given as “barely detectable”. Further, the “fold more potent than the monomer” value in assay [2] lay in the range of 10 to 14 fold.
In the case of Glycine, in assay [5], the “Beads bound at 1.53 dynes/cm^2” value amounted to 10.
Regarding “BRU-170: TPATSVRG (negative control) [reference compound]”, the “inhibition of 125I-VEGF165 binding to NP-1 Fc” value in assay [2] (at 1 μM) was “no inhibition”.
